This is an account of results in ChEMBL document CHEMBL5260834, “Benzomorphan skeleton, a versatile scaffold for different targets: A comprehensive review” (Eur J Med Chem, 2018).

Data set [1] is described as follows: Half life in mouse. Format: ADME, organism-based. As to conditions: in vivo.
Data set [2] can be described thus: Toxicity in mouse assessed as induction of lethality. The note with it: in vivo.
Data set [3] deals with Glutamate [NMDA] receptor. In words: Antagonist activity at NMDA receptor (unknown origin) assessed as inhibition constant. Format: protein-complex assay, Homo sapiens.

In general, half-life refers to how long it takes for the measured level to halve. The term LD50 denotes the dose at which mortality reaches 50%. The term Ki denotes the dissociation constant of the complex between target and ligand, obtained from inhibition or displacement.

For the compound `CO[C@H](C)CN1CC[C@@]2(C)c3ccc(O)cc3C[C@@H]1C2(C)C`, in data set [1], the half-life was 4 h. Besides, in data set [2], the 50% lethal dose (LD50) came to 0.4 mg/kg. In data set [3], the Ki amounted to 4.5 nM.
